Results on nine molecules are retold here after ChEMBL document CHEMBL4837236, “Polyketides with Anti-neuroinflammatory Activity from Theissenia cinerea” (J Nat Prod, 2021).

The test system of data set [1] is BV-2. Description: Cytotoxicity against mouse BV2 cells assessed as cell viability at 10 uM after 24 hrs by MTT assay. Type of data set: cell-based. The note with it: bv-2, 24 h. A general note: Formazan colour is commonly taken as a measure of viable cells.
Data set [2] relates to BV-2. Nature of the data set: Antiinflammatory activity in mouse BV2 cells assessed as inhibition of LPS-induced NO-production by measuring NO level at 10 uM preincubated for 1 hr followed by LPS stimulation and measured after 24 hrs by microplate reader based colorimetric assay (reference value: 26.6 +/- 8.1 uM). Type of data set: functional.
Data set [3] relates to BV-2. Description: Antiinflammatory activity in mouse BV2 cells assessed as inhibition of LPS-induced NO-production preincubated for 1 hr followed by LPS stimulation and measured after 24 hrs by microplate reader based colorimetric assay. In kind it is functional, cell-based. The conditions noted are these: for inhibition: time 25.0 hrs.

Take `CC(O)C/C=C/[C@H](O)[C@H](O)/C=C/c1cccc(O)c1CO` (some centres undefined): the Activity entry in the data set with BV-2 [1] is “Non-Toxic”. Besides, in the data set on BV-2 [2], the NO level stood at 26.6 µM.

One may read the IC50 as the concentration that inhibits the measured activity by half. With `COc1cc(/C=C/C(=O)CC(=O)/C=C/c2ccc(O)c(OC)c2)ccc1O` [CURCUMIN], in the data set with BV-2 [2], the NO level is 5.5 µM. In addition, the IC50 with BV-2 [3] stood at 3 µM.

Consider `COc1cc(O)c2c(c1)[C@H](O)[C@@]1(CO)O[C@@]1(CO)C2=O`, for which, in the data set on BV-2 [1], the Activity entry is “Non-Toxic”. Besides, the NO level in the data set with BV-2 [2] is 10.5 µM. Further, in the data set on BV-2 [3], the IC50 was found to be 5 µM and the inhibition result is “Dose-Dependent Effect”.

With `C/C=C/[C@H]1O[C@@H]2C(=C[C@H]1O)C(=O)O[C@@H]2C`, the Activity result with BV-2 [1] is given as “Non-Toxic”. Also, the NO level in the data set with BV-2 [2] worked out at 2.2 µM. Moreover, in the data set on BV-2 [3], the 50% inhibitory concentration (IC50) is 4.5 µM.

Consider `COc1cc(O)c2c(c1)[C@H](O)[C@]13CO[C@H](O)[C@]1(O3)C2=O`, for which the Activity entry in the data set with BV-2 [1] is on record as “Non-Toxic”. In addition, the NO level in the data set on BV-2 [2] worked out at 2.6 µM. In addition, in the data set with BV-2 [3], the IC50 was 3.2 µM and the inhibition entry was “Dose-Dependent Effect”.

On to `C[C@@H]1OC(=O)c2c(O)ccc(O)c2[C@@H]1O`, for which the Activity result with BV-2 [1] was “Non-Toxic”. In addition, the NO level with BV-2 [2] came out at 28.9 µM.

Take `C/C=C/[C@@H]1O[C@@H]2[C@@H](C)OC(=O)[C@]2(O)C[C@H]1O`: the Activity entry in the data set with BV-2 [1] is given as “Non-Toxic”. In addition, in the data set with BV-2 [2], the NO level came to 25.5 µM.

As for `CCC/C=C/C1=C(CO)[C@@H](O)[C@@H]2O[C@@H]2[C@@H]1O`, the Activity result in the data set on BV-2 [1] is reported as “Non-Toxic”. For the same molecule, the NO level in the data set with BV-2 [2] came to 24.3 µM.

As for `C/C=C/[C@@H]1O[C@H]2C(=C[C@H]1O)C(=O)O[C@@H]2C`, the Activity entry in the data set on BV-2 [1] was “Non-Toxic”. For the same molecule, in the data set with BV-2 [2], the NO level was 1.9 µM. Further, the concentration for half-maximal inhibition (IC50) in the data set on BV-2 [3] was 1.1 µM.
